Measurements published in ChEMBL document CHEMBL1201862, “PubChem BioAssay data set” (2004).
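Step 1: Grow cells in 96-well plates. Step 2: Expose to compound for 48 hours at 5 concentrations. Step 3: Interpolate endpoints linearly; if unreached, use highest concentration. GI50: concentration for 50% inhibition of growth.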 The source made the active and inactive calls. Rule as the data show it: active = GI50 up to about 1.1 µM and inactive = higher.

Tests used:
Test in all cases: inhibition of tumour cell growth, NCI panel, 48 h
ACHN = test system: ACHN
SF-539 = test system: SF-539
A549 = test system: A549
NCI-H226 = test system: NCI-H226
HOP-62 = test system: HOP-62
NCI/ADR-RES = test system: NCI/ADR-RES
MCF7 = test system: MCF7
MDA-MB-435 = test system: MDA-MB-435
IGROV-1 = test system: IGROV-1
SN12C = test system: SN12C
HL-60 = test system: HL-60
SF-295 = test system: SF-295
NCI-H23 = test system: NCI-H23
PC-3 = test system: PC-3
HOP-92 = test system: HOP-92
SNB-19 = test system: SNB-19
Malme-3M = test system: Malme-3M
SF-268 = test system: SF-268
COLO 205 = test system: COLO 205
U-251 = test system: U-251
DU-145 = test system: DU-145
HT-29 = test system: HT-29
OVCAR-5 = test system: OVCAR-5
SR = test system: SR
RPMI-8226 = test system: RPMI-8226
EKVX = test system: EKVX
BT-549 = test system: BT-549
LOX IMVI = test system: LOX IMVI
SK-MEL-28 = test system: SK-MEL-28
SK-MEL-5 = test system: SK-MEL-5
A498 = test system: A498
OVCAR-8 = test system: OVCAR-8
HCC 2998 = test system: HCC 2998
HCT-15 = test system: HCT-15
KM12 = test system: KM12
HCT-116 = test system: HCT-116
SK-OV-3 = test system: SK-OV-3
UACC-62 = test system: UACC-62
SW-620 = test system: SW-620
NCI-H522 = test system: NCI-H522
NCI-H460 = test system: NCI-H460
MOLT-4 = test system: MOLT-4
MDA-MB-231 = test system: MDA-MB-231
Hs-578T = test system: Hs-578T
CCRF-CEM = test system: CCRF-CEM
UO-31 = test system: UO-31
SNB-75 = test system: SNB-75
OVCAR-3 = test system: OVCAR-3
CAKI-1 = test system: CAKI-1
SK-MEL-2 = test system: SK-MEL-2
OVCAR-4 = test system: OVCAR-4
T47D = test system: T47D
M14 = test system: M14
K562 = test system: K562
UACC-257 = test system: UACC-257
TK-10 = test system: TK-10
786-0 = test system: 786-0
RXF 393 = test system: RXF 393
MDA-N = test system: MDA-N

SMILES: NNC(=O)c1ccccc1Nc1nc(-c2cccs2)nc2ccc(Br)cc12
- GI50 (ACHN): > 100 µM (inactive)
- GI50 (SF-539): > 100 µM (inactive)
- GI50 (A549): 85.1 µM (inactive)
- GI50 (NCI-H226): > 100 µM (inactive)
- GI50 (HOP-62): > 100 µM (inactive)
- GI50 (NCI/ADR-RES): > 100 µM (inactive)
- GI50 (MCF7): 49.5 µM (inactive)
- GI50 (MDA-MB-435): 77.4 µM (inactive)
- GI50 (IGROV-1): > 100 µM (inactive)
- GI50 (SN12C): 37.2 µM (inactive)
- GI50 (HL-60): 71.3 µM (inactive)
- GI50 (SF-295): 51.8 µM (inactive)
- GI50 (NCI-H23): > 100 µM (inactive)
- GI50 (PC-3): 44.4 µM (inactive)
- GI50 (HOP-92): > 100 µM (inactive)
- GI50 (SNB-19): 53.3 µM (inactive)
- GI50 (Malme-3M): > 100 µM (inactive)
- GI50 (SF-268): 31.1 µM (inactive)
- GI50 (COLO 205): > 100 µM (inactive)
- GI50 (U-251): 23.2 µM (inactive)
- GI50 (DU-145): > 100 µM (inactive)
- GI50 (HT-29): 78.5 µM (inactive)
- GI50 (OVCAR-5): > 100 µM (inactive)
- GI50 (SR): > 100 µM (inactive)
- GI50 (RPMI-8226): > 100 µM (inactive)
- GI50 (EKVX): > 100 µM (inactive)
- GI50 (BT-549): 84.1 µM (inactive)
- GI50 (LOX IMVI): 44.9 µM (inactive)
- GI50 (SK-MEL-28): 45.5 µM (inactive)
- GI50 (SK-MEL-5): 74 µM (inactive)
- GI50 (A498): > 100 µM (inactive)
- GI50 (OVCAR-8): 55 µM (inactive)
- GI50 (HCC 2998): 90.4 µM (inactive)
- GI50 (HCT-15): 14.7 µM
- GI50 (KM12): 67.5 µM (inactive)
- GI50 (HCT-116): 70 µM (inactive)
- GI50 (SK-OV-3): > 100 µM (inactive)
- GI50 (UACC-62): > 100 µM (inactive)
- GI50 (SW-620): > 100 µM (inactive)
- GI50 (NCI-H522): > 100 µM (inactive)
- GI50 (NCI-H460): 87.3 µM (inactive)
- GI50 (MOLT-4): > 100 µM (inactive)
- GI50 (MDA-MB-231): > 100 µM (inactive)
- GI50 (Hs-578T): > 100 µM (inactive)
- GI50 (CCRF-CEM): > 100 µM (inactive)
- GI50 (UO-31): > 100 µM (inactive)
- GI50 (SNB-75): 45.4 µM (inactive)
- GI50 (OVCAR-3): 25.9 µM (inactive)
- GI50 (CAKI-1): 74.3 µM (inactive)
- GI50 (SK-MEL-2): > 100 µM (inactive)
- GI50 (OVCAR-4): 6.7 µM (inactive)
- GI50 (T47D): 47.8 µM (inactive)
- GI50 (M14): 86.7 µM (inactive)
- GI50 (K562): 77.6 µM (inactive)
- GI50 (UACC-257): > 100 µM (inactive)
- GI50 (TK-10): > 100 µM (inactive)
- GI50 (786-0): 49.5 µM (inactive)

SMILES: CCCCCCCCCCCCC(O)[C@H]1CC[C@H](C(O)CCCCCC(=O)CCCCC2CC(C(C)=O)C(=O)O2)O1 (some centres undefined)
- GI50 (ACHN): 7.29 µM (inactive)
- GI50 (SF-539): 14.1 µM (inactive)
- GI50 (A549): 3.7 µM (inactive)
- GI50 (NCI-H226): 17.6 µM (inactive)
- GI50 (HOP-62): 4.98 µM (inactive)
- GI50 (NCI/ADR-RES): 3.44 µM (inactive)
- GI50 (MCF7): 3.47 µM (inactive)
- GI50 (MDA-MB-435): 8.34 µM (inactive)
- GI50 (IGROV-1): 11 µM (inactive)
- GI50 (RXF 393): 7.6 µM (inactive)
- GI50 (SN12C): 7.24 µM (inactive)
- GI50 (HL-60): 2.12 µM (inactive)
- GI50 (SF-295): 4.95 µM (inactive)
- GI50 (NCI-H23): 2.22 µM (inactive)
- GI50 (PC-3): 4.95 µM (inactive)
- GI50 (HOP-92): 10.4 µM (inactive)
- GI50 (SNB-19): 9.4 µM (inactive)
- GI50 (Malme-3M): 11.5 µM (inactive)
- GI50 (SF-268): 12.3 µM (inactive)
- GI50 (COLO 205): 6.3 µM (inactive)
- GI50 (U-251): 8.87 µM (inactive)
- GI50 (DU-145): > 43.6 µM (inactive)
- GI50 (HT-29): 6.73 µM (inactive)
- GI50 (OVCAR-5): 18.4 µM (inactive)
- GI50 (SR): 0.0264 µM (active)
- GI50 (MDA-N): 3.68 µM (inactive)
- GI50 (RPMI-8226): 1.65 µM (inactive)
- GI50 (EKVX): 5.69 µM (inactive)
- GI50 (BT-549): 15 µM (inactive)
- GI50 (LOX IMVI): 2.08 µM (inactive)
- GI50 (SK-MEL-28): 16.9 µM (inactive)
- GI50 (SK-MEL-5): 0.802 µM (active)
- GI50 (A498): 13.3 µM (inactive)
- GI50 (OVCAR-8): 8.97 µM (inactive)
- GI50 (HCC 2998): 16.2 µM (inactive)
- GI50 (HCT-15): 8.18 µM
- GI50 (KM12): 8.77 µM (inactive)
- GI50 (HCT-116): 1.02 µM (active)
- GI50 (SK-OV-3): 9.68 µM (inactive)
- GI50 (UACC-62): 4.67 µM (inactive)
- GI50 (SW-620): 11.4 µM (inactive)
- GI50 (NCI-H522): 3.94 µM (inactive)
- GI50 (NCI-H460): 3.03 µM (inactive)
- GI50 (MDA-MB-231): 11 µM (inactive)
- GI50 (Hs-578T): 15.4 µM (inactive)
- GI50 (CCRF-CEM): 3.17 µM (inactive)
- GI50 (UO-31): 8.97 µM (inactive)
- GI50 (SNB-75): 10.5 µM (inactive)
- GI50 (OVCAR-3): 4.25 µM (inactive)
- GI50 (CAKI-1): 17.1 µM (inactive)
- GI50 (SK-MEL-2): 13.6 µM (inactive)
- GI50 (OVCAR-4): 4.09 µM (inactive)
- GI50 (M14): 8.77 µM (inactive)
- GI50 (K562): 1.33 µM (inactive)
- GI50 (UACC-257): 1.16 µM (inactive)
- GI50 (TK-10): 14.1 µM (inactive)
- GI50 (786-0): 12.9 µM (inactive)
